From patent US20220272975A1, “COMPOSITIONS AND METHODS FOR TREATING PLANT PARASITES” (Arizona Board Regents on Bealf of the University of Arizona, priority 2019, published 2022)
≈ marks a conversion by molar mass, not a printed value. Like-named read-outs stand apart in the source and are kept apart here. Marks after values point to notes of the source that are not given here.

Experiments:
[1] = tested on: HFF cells (human foreskin normal cells); test: Human cytotoxicity (MTT) assay; format: cell-based; details: after 72 hours; for % Inh. HFF: Conc. 200 µM
Experimental: (§1) This Example describes human cytotoxicity of individual SMs. […] Three cancer cell lines (NCI-H460 human non-small cell lung cancer, SF-268 human central nervous system glioma, and MCF-7 human breast cancer) were used that are routinely use as “sentinels” (if a compound is cytotoxic, then at least one of these are usually killed). HFF cells (human foreskin normal cells, not cancer cells) was also used as a “control”.
(§2) Tested concentrations of these SMs increased at 50, 100 uM, then at 200 uM (Table 7).

[2] = tested on: SF-268 human central nervous system glioma; test: Human cytotoxicity (MTT) assay; format: cell-based; details: for % Inh. SF-268: after 72 hours, Conc. 200 µM
Experimental: as §1, §2

[3] = tested on: MCF-7 human breast cancer; test: Human cytotoxicity (MTT) assay; format: cell-based; details: for % Inh. MCF-7: after 72 hours, Conc. 200 µM
Experimental: as §1, §2

[4] = tested on: Tylenchulus semipenetrans; test: In vitro nematicidal/nematistatic assay on the infective stage (J2 juveniles) of the citrus nematode; format: in vivo; details: for Concentration at which nematicidal activity was observed: observational data; for LC50 / EC50: Tylenchulus semipenetrans
Experimental: (§3) Time points for observations were at 24, 48, and 72 h after initial exposure of each SM against J2 juveniles of M. incognita and T. semipenetrans under in vitro conditions.
(§4) After assessments of individual SM toxicity, the combined toxic effects of these SMs was assayed in order to understand interaction between each SM. […] In addition, the additive index values were calculated and indicated in each Table.
(§5) When analyzing the results of combination effects of the SMs, the statistical method described by DeLorenzo and Serrano (2003) was used as follows: S=(Am/Ai)+(Bm/Bi). Where: S=sum of biological activity or total toxicant unit (TTU); Am=LC50 for compound A in the mixture; Ai=LC50 for compound A in the individual effect; Bm=LC50 for compound B in the mixture; Bi=LC50 for compound B in the individual effect. S values will be used to calculate an additive index. If S≤1.0, then the additive index=(1/S)−1.0.

in vitro = test: in vitro
Experimental: (§6) Laboratory assays were carried out to assess the nematicidal activity of the above-mentioned secondary metabolites (SMs) on the infective stage (i.e. the one that infects the roots of plants) of: 1) the root-knot nematode, (M. incognita); and 2) the citrus nematode (T semipenetrans). The effect of these SMs on five beneficial soil nematode species microbivores and those involved in nutrient cycling) was also tested to make sure these compounds only affect plant parasites (only for individual SM experiments).
(§7) Five non-target nematode species includes:
(§8) three entomopathogenic species: Steinernema carpocapsae, H bacteriophora, and H sonorensis.
(§9) The susceptibility of test population to these SMs was assessed by constructing a dosage-mortality curve in which the dosage was plotted against the percentage mortality at a given period of time (FIGS. 1-3).
(§10) Concentration-response data for each concentration of single Photorhabdus-derived SMs and the mixtures were pooled and subjected to Probit regression analysis using the Polo Plus program (LeOra software, Petaluma, Calif.). The LC or EC values, along with corresponding 95% confidence intervals, were estimated for each single SM and SM mixture at each exposure time, depending on the experimental setting. Statistically significant differences in LC or EC values among SMs at a given exposure time period within or among nematode species were interpreted based on non-overlapping of 95% confidence intervals. For the toxicity data visualization, the relationship between percent mortality or temporary quiescence and concentration was described by a sigmoidal curve, which is fitted by the logistical function, using the statistical software package Sigmaplot for Windows, version 14.0 (Systat Software Inc., San Jose, Calif., USA).

Steinernema carpocapsae = test: whole plant or invertebrate
Experimental: as §6, §7, §8, §9
Concentration-response data for each concentration of single Photorhabdus-derived SMs and the mixtures were pooled and subjected to Probit regression analysis using the Polo Plus program (LeOra software, Petaluma, Calif.). The LC or EC values, along with corresponding 95% confidence intervals, were estimated for each single SM and SM mixture at each exposure time, depending on the experimental setting. […]

Caenorhabditis elegans = test: whole plant or invertebrate
Experimental: as §6, §7
(§11) two free-living bacterivores: Caenorhabditis elegans and Rhabditis blumi.
as §9, §10

Rhabditis blumi = test: whole plant or invertebrate
Experimental: as §6, §7, §11, §9, §10

[5] = tested on: NCI-H460 human non-small cell lung cancer; test: Human cytotoxicity (MTT) assay; format: cell-based; details: for % Inh. NCI-H460: Conc. 200 µM
Experimental: as §1, §2

Meloidogyne incognita = test: In vitro nematicidal/nematistatic assay on the infective stage (J2 juveniles) of the root-knot nematode; format: in vivo; details: for Concentration at which nematicidal activity was observed: observational data; for LC50 / EC50: Meloidogyne incognita
Experimental: as §3, §4, §5

H. bacteriophora = test: whole plant or invertebrate; details: Heterorhabditis bacteriophora, read-out: EC50 (effective concentration causing 50% reversible nematode paralysis, temporary quiescence)
Experimental: as §6, §7, §8, §9, §10

H. sonorensis = test: animal or person; details: read-out: EC50 (effective concentration causing 50% reversible nematode paralysis, temporary quiescence)
Experimental: as §6, §7, §8, §9, §10

[6] = T. semipenetrans, in vitro, 24 h exposure
[7] = read-out: LC50 (lethal concentration causing 50% nematode death), Table 6: individual compounds or compound mixtures, J2 juveniles of T. semipenetrans, in vitro
[8] = M. incognita, in vitro, 24 h exposure
[9] = read-out: LC50 (lethal concentration causing 50% nematode death), Table 5: individual compounds or compound mixtures, J2 juveniles of M. incognita, in vitro

With `O=C(O)/C=C/c1ccccc1` [TCA, trans-cinnamic acid] the “% Inh. HFF” value [1] was 10.8%, the “% Inh. SF-268” value [2] was 13.0% and the “% Inh. MCF-7” value [3] was 2.59%.

For `O=C(O)CC/C=C/c1ccccc1` [PPA, (4E)-5-phenylpent-4-enoic acid], the “LC50 (lethal concentration causing 50% nematode death)” value [4, 6] was 66.3 (50.7-73.4) μg mL^−1, the “Concentration at which nematicidal activity was observed” value ([4]; T. semipenetrans) was ≥ 40 µg/mL and the LC50 ([4]; read-out: LC50 (concentration required to kill 50% nematode population), T. semipenetrans, 24 h of exposure) was 66 µg/mL. It also gave an LC50 ([4]; read-out: LC50 (lethal concentration causing 50% nematode death), T. semipenetrans, in vitro, 24 h exposure) of 66.3 µg/mL, an LC50 [4, 7] of 66.3 µg/mL and an LC50 ([4]; J2 juveniles of T. semipenetrans (CN), 48 h exposure, read-out: LC50 (95% confidence interval)) of 59.8 µg/mL. The LC50 ([4]; J2 juveniles of T. semipenetrans (CN), 72 h exposure, read-out: LC50 (95% confidence interval)) was 42.2 µg/mL, the LC50 (in vitro; H. bacteriophora) was > 400 µg/mL and the LC50 (in vitro; H. sonorensis, whole H. sonorensis nematodes (non-target entomopathogenic)) was > 400 µg/mL. For the same compound, the “LC50 (lethal concentration causing 50% nematode death)” value (Steinernema carpocapsae; S. carpocapsae, in vitro) was >400^e μg mL^−1, the “LC50 (lethal concentration causing 50% nematode death)” value (Caenorhabditis elegans; C. elegans, in vitro) was 278 µg/mL (≈ 1580 µM) and the “LC50 (lethal concentration causing 50% nematode death)” value (Rhabditis blumi; R. blumi, in vitro) was 346 µg/mL (≈ 1960 µM). For the same compound, the “% Inh. HFF” value [1] was 22.6%, the “% Inh. SF-268” value [2] was 7.76% and the “% Inh. MCF-7” value [3] was −5.35%. For the same compound, the “% Inh. NCI-H460” value ([5]; MTT, after 72 hours) was 3.97%, the “LC50 (lethal concentration causing 50% nematode death)” value (Meloidogyne incognita; [8]) was 44.4 (38.8-48.6) μg mL^−1 and the “Concentration at which nematicidal activity was observed” value (Meloidogyne incognita; M. incognita) was ≥ 40 µg/mL. The LC50 (Meloidogyne incognita; read-out: LC50 (concentration required to kill 50% nematode population), M. incognita, 24 h of exposure) was 44 µg/mL, the LC50 (Meloidogyne incognita; read-out: LC50 (lethal concentration causing 50% nematode death), M. incognita, in vitro, 24 h exposure) was 44.4 µg/mL and the LC50 (Meloidogyne incognita; [9]) was 44.4 µg/mL. The LC50 (Meloidogyne incognita; J2 juveniles of M. incognita (RKN), 48 h exposure, read-out: LC50 (95% confidence interval)) was 42 µg/mL and the LC50 (Meloidogyne incognita; J2 juveniles of M. incognita (RKN), 72 h exposure, read-out: LC50 (95% confidence interval)) was 38.9 µg/mL.

In the case of `c1ccc2[nH]ccc2c1` [ID, indole], the “Concentration at which nematistatic activity (reversible quiescence) was induced” value ([4]; T. semipenetrans) is reported as > 10 µg/mL, the “EC50 (effective concentration causing 50% reversible nematode paralysis, temporary quiescence)” value [4, 6] is reported as 37.1 (28.7-43.4) μg mL^−1 and the “Concentration at which nematicidal activity was observed” value ([4]; T. semipenetrans) is reported as ≥ 300 µg/mL. The EC50 ([4]; read-out: EC50 (concentration required to immobilize 50% of nematode population), T. semipenetrans) was 37 µg/mL, the EC50 ([4]; read-out: EC50 (effective concentration causing 50% reversible nematode paralysis, temporary quiescence), T. semipenetrans, in vitro, 24 h exposure) was 37.1 µg/mL and the LC50 [4, 7] was 388 µg/mL. The EC50 ([4]; J2 juveniles of T. semipenetrans, 48 h exposure, read-out: EC50 (95% confidence interval), reversible paralysis) was 66.2 µg/mL, the EC50 ([4]; J2 juveniles of T. semipenetrans, 72 h exposure, read-out: EC50 (95% confidence interval), reversible paralysis) was 68.3 µg/mL and the LC50 ([4]; T. semipenetrans, ID alone and SM mixtures, exposure time not given, read-out: LC50) was 388 µg/mL. For the same compound, the EC50 (H. bacteriophora) was > 400 µg/mL, the EC50 (H. sonorensis) was > 400 µg/mL and the EC50 (Steinernema carpocapsae; Steinernema carpocapsae, read-out: EC50 (effective concentration causing 50% reversible nematode paralysis, temporary quiescence)) was > 400 µg/mL. For the same compound, the EC50 (Caenorhabditis elegans; Caenorhabditis elegans, read-out: EC50 (effective concentration causing 50% reversible nematode paralysis, temporary quiescence)) was 159 µg/mL (≈ 1360 µM), the EC50 (Rhabditis blumi; Metarhabditis blumi, read-out: EC50 (effective concentration causing 50% reversible nematode paralysis, temporary quiescence)) was 37 µg/mL (≈ 316 µM) and the “% Inh. HFF” value [1] was 4.64%. The “% Inh. SF-268” value [2] was 20.2%, the “% Inh. MCF-7” value [3] was 5.31% and the “% Inh. NCI-H460” value ([5]; MTT, after 72 hours) was 30.5%. For the same compound, the “Toxicity against NCI-H460” value ([5]; at 200 uM) was 30.5%, the “Concentration at which nematistatic activity (reversible quiescence) was induced” value (Meloidogyne incognita; M. incognita) was > 40 µg/mL and the “EC50 (effective concentration causing 50% reversible nematode paralysis, temporary quiescence)” value (Meloidogyne incognita; [8]) was 56.3 (52.9-59.6) μg mL^−1. For the same compound, the “Concentration at which nematicidal activity was observed” value (Meloidogyne incognita; M. incognita) was ≥ 300 µg/mL, the EC50 (Meloidogyne incognita; read-out: EC50 (concentration required to immobilize 50% of nematode population), M. incognita) was 56 µg/mL and the EC50 (Meloidogyne incognita; read-out: EC50 (effective concentration causing 50% reversible nematode paralysis, temporary quiescence), M. incognita, in vitro, 24 h exposure) was 56.3 µg/mL. The LC50 (Meloidogyne incognita; [9]) was 307 µg/mL, the EC50 (Meloidogyne incognita; J2 juveniles of M. incognita (RKN), 48 h exposure, read-out: EC50 (95% confidence interval), reversible paralysis) was 61.3 µg/mL and the EC50 (Meloidogyne incognita; J2 juveniles of M. incognita (RKN), 72 h exposure, read-out: EC50 (95% confidence interval), reversible paralysis) was 76.3 µg/mL. For the same compound, the LC50 (Meloidogyne incognita; M. incognita, ID alone and SM mixtures, exposure time not given, read-out: LC50) was 307 µg/mL.

In the case of `COc1cccc2c1C(=O)c1c(O)c3c(c(O)c1C2=O)C[C@@](O)(C(=O)CO)C[C@@H]3O[C@H]1C[C@H](N)[C@H](O)[C@H](C)O1` [Doxorubicin, reference compound], the inhibition at 1 µM ([1]; Homo sapiens, HFF, Conc. 1 μM (+ control)) is reported as 64.9%, the inhibition at 1 µM ([2]; Homo sapiens, SF-268, after 72 hours, Conc. 1 μM (+ control), read-out: % Inh. SF-268) is reported as 86.7% and the inhibition at 1 µM ([3]; Homo sapiens, MCF7, after 72 hours, Conc. 1 μM (+ control), read-out: % Inh. MCF-7) is reported as 64.1%. It also gave an inhibition at 1 µM ([5]; Homo sapiens, NCI-H460, MTT, after 72 hours, Conc. 1 μM (+ control), read-out: % Inh. NCI-H460) of 97.2%.
